Source: PMC5750217 (Nature Communications, 2018)

Key:
[1] = molecular target: T1, ASCT1 (Homo sapiens, UniProt P43007); experiment: Two electrode voltage clamp, substrate-activated anion current in oocytes expressing ASCT1; format: cell-based
T1 construct: expressed in transfected cells; host or cells: Xenopus laevis oocytes (cRNA injection)
T1 sequence (P43007 1-532): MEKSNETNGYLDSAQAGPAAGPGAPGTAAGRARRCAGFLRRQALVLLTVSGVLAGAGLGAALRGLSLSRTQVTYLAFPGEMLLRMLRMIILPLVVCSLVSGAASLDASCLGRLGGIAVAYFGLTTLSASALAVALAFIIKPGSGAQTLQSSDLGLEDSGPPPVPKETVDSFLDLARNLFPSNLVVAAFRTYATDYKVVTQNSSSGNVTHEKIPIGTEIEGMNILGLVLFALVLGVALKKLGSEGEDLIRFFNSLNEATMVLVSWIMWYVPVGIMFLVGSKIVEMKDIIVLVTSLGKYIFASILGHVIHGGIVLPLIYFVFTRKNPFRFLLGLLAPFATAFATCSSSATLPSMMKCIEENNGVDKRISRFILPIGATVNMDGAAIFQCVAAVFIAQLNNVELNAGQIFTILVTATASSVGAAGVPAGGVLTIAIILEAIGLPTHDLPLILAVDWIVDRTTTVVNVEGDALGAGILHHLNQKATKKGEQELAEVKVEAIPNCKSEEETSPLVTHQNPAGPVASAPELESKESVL
Method: All chemicals were obtained from Sigma unless otherwise stated. Stage V oocytes were harvested from female Xenopus laevis (frogs) which were obtained from Nasco (Fort Alkinson, USA). Frogs were anaesthetised with 6.5 mM tricaine neutralised with 7.14 mM sodium bicarbonate. After making an incision in the abdomen of the frog, ovarian sacs were removed and stored in OR-2 buffer (82.5 mM NaCl, 2 mM KCl, 1 mM MgCl2, 5 mM hemisodium HEPES, pH 7.5). This surgical procedure follows a protocol (#2016/970) approved by the University of Sydney Animal Ethics Committee under the Australian Code of Practice for the Care and Use of Animals for Scientific Purposes. […]
After 2–4 days of microinjection, current recordings were made using the two electrode voltage clamp technique with a Geneclamp 500 amplifier (Axon Instruments, Foster City, CA) interfaced with a MacLab 2e chart recorder (ADI Instruments, Sydney, Australia) using the chart software, and a Digidata 1322A (Axon Instruments) controlled by an IBM-compatible computer using the pClamp software (version 10, Molecular Devices, Union City, CA). […] Current–voltage relationships were calculated by subtracting steady state current measurements in the absence of substrate from corresponding current measurements in the presence of substrate. […]

[2] = molecular target: T2, A2-S481T/C482T (mutant ASCT2) (Homo sapiens, UniProt Q15758, C467T/S466T); experiment: Two electrode voltage clamp, substrate-activated anion current in oocytes expressing A2-S481T/C482T; format: cell-based
T2 construct: expressed in transfected cells; host or cells: Xenopus laevis oocytes (cRNA injection)
T2 sequence (Q15758 1-541 S466T/C467T): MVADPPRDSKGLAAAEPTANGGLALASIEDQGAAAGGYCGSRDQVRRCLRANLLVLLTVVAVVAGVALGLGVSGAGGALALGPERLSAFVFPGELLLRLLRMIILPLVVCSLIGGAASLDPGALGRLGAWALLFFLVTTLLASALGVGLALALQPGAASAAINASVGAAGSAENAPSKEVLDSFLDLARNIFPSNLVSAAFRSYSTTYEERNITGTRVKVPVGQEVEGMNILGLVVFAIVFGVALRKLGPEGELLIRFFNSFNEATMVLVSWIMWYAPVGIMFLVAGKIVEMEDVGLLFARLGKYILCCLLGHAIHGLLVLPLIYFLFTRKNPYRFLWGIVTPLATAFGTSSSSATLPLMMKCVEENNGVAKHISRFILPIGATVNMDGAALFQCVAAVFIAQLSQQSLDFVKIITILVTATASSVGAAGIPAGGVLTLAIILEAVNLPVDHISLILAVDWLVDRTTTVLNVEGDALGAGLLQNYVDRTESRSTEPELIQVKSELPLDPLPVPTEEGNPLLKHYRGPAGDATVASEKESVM
Method: All chemicals were obtained from Sigma unless otherwise stated. Stage V oocytes were harvested from female Xenopus laevis (frogs) which were obtained from Nasco (Fort Alkinson, USA). Frogs were anaesthetised with 6.5 mM tricaine neutralised with 7.14 mM sodium bicarbonate. After making an incision in the abdomen of the frog, ovarian sacs were removed and stored in OR-2 buffer (82.5 mM NaCl, 2 mM KCl, 1 mM MgCl2, 5 mM hemisodium HEPES, pH 7.5). This surgical procedure follows a protocol (#2016/970) approved by the University of Sydney Animal Ethics Committee under the Australian Code of Practice for the Care and Use of Animals for Scientific Purposes. To isolate oocytes, the ovarian sacs were cut into small sections before being digested by agitation with 2 mg per ml Collagenase A for 1–2 h. Following digestion, defoliculated oocytes were initially rinsed with OR-2, followed by frog Ringer’s solution (96 mM NaCl, 2 mM KCl, 1 mM MgCl2, 1.8 mM CaCl2, 5 mM hemisodium HEPES, pH 7.5). A total of 20 ng of transporter cRNA was injected into oocytes which were stored in frog Ringer’s solution supplemented with 0.1% gentamycin, 50 μg per ml tetracycline, 2.5 mM pyruvate and 0.5 mM theophylline at 16–18 °C.
After 2–4 days of microinjection, current recordings were made using the two electrode voltage clamp technique with a Geneclamp 500 amplifier (Axon Instruments, Foster City, CA) interfaced with a MacLab 2e chart recorder (ADI Instruments, Sydney, Australia) using the chart software, and a Digidata 1322A (Axon Instruments) controlled by an IBM-compatible computer using the pClamp software (version 10, Molecular Devices, Union City, CA). The current–voltage relationships for substrate elicited conductances were obtained by subjecting cells to 200 ms voltage pulses between −100 mV and + 60 mV in 10 mV steps. Current–voltage relationships were calculated by subtracting steady state current measurements in the absence of substrate from corresponding current measurements in the presence of substrate. […]

[3] = A2-S481T/C482T in oocytes, NO3−-containing buffer, current at +60 mV, dash = substrate did not generate currents

SMILES: N[C@@H](CCC(=O)Nc1ccc([N+](=O)[O-])cc1)C(=O)O [GPNA, glutamyl-p-nitroanilide]
- GPNA % inhibition of L-serine activated current ([1]; ASCT1, GPNA co-applied with EC50 of L-serine, 300 µM GPNA / 1 mM GPNA (Table 1 footnote)): 26 ± 3%
- GPNA % inhibition of L-serine activated current ([2]; A2-S481T/C482T, GPNA co-applied with EC50 of L-serine, 1 mM GPNA (Table 1 footnote)): 20 ± 3%

SMILES: NC(=O)CC[C@H](N)C(=O)O [L-glutamine]
- EC50 of substrate-activated current [2, 3]: did not generate any currents

SMILES: N[C@@H](CO)C(=O)O [L-serine]
- EC50 ([1]; ASCT1 in oocytes, NO3−-containing buffer, current at +60 mV, dash = substrate did not generate currents): 100 ± 20 µM
- EC50 [2, 3]: 61 ± 7 µM
